According to patent US11248243B2, “Process for the biological production of methacrylic acid and derivatives thereof” (MITSUBISHI CHEMICAL UK LIMITED, priority 2015, dated 2022):
One block for each compound: values may come before it.

Key:
acyl-CoA synthetase AcsA = settings: published value, cited from earlier work
[1] = biological target: T1, short chain acyl-CoA oxidase (ACX4) (Arabidopsis thaliana, UniProt Q96329); assay: Activity test of ACX4 cell free extract, HPLC analysis; assay type: biochemical; settings: ACX4 cell free extract 0.8 mg/ml, isobutyryl-CoA 500 μM, FAD 10 μM, HEPES pH 7.5, 30° C., 30 min
T1 construct: made in house; host or cells: E. coli BL21 (DE3) pLysS pET20b(+)::ACX4, cell free extract
T1 sequence (Q96329 1-436): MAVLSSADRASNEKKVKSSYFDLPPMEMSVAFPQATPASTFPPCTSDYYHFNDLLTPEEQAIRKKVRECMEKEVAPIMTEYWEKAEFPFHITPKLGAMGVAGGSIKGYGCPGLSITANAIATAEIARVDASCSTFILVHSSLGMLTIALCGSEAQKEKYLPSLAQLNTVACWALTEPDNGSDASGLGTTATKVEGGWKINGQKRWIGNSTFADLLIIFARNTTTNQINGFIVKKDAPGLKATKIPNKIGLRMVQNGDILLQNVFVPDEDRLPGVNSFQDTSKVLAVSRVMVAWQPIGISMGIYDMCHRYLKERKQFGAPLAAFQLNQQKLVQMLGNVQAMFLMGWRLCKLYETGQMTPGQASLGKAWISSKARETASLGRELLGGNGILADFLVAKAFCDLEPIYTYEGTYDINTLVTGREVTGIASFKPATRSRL
Procedure: To prepare a cell free extract of the ACX4 enzyme, one of the cell pellets that was prepared previously was re-suspended in HEPES (50 mM, pH 7.5) buffer (6 ml) that was supplemented with flavin adenine dinucleotide (FAD) at a final concentration of 10 μM. The re-suspended cells were then lysed in a Constant Systems One Shot cell disrupter. The lysate was centrifuged at 18,000 g for 15 min at 4° C. and the supernatant of this was further centrifuged at […] for 60 min at 4° C. The supernatant was concentrated in a VivaSpin Viva6 10,000 Molecular Weight Cut-Off centrifugal concentrator, centrifuging at 10,000 g at 18° C. until a six-fold volume reduction of the retentate. […] The total protein concentration in the retentate was determined using the BioRad DC protein assay kit, using bovine serum albumin as the protein standard. […]
The activity test of ACX4 was performed in 1.5 ml micro-centrifuge tubes. […] The reaction was incubated at 30° C. in the 1.5 ml micro-centrifuge tube, with shaking at 250 rpm for 30 min and the final reaction product was analysed by analytical HPLC (FIG. 5). […]
In order to confirm that the methacrylyl-CoA peak was genuine, and that it was not an isobutyryl-CoA peak with a shifted elution time, the sample was spiked with isobutyryl-CoA and analysed by HPLC again. […]

[2] = biological target: T2, 4-hydroxybenzoyl-CoA thioesterase (4HBT) (Arthrobacter sp, UniProt Q04416); assay: Crude enzymatic assays of 4HBT cell free extract (DTNB, 412 nm); assay type: biochemical, Arthrobacter sp. strain SU; settings: cell free protein extract 1 mg/ml
T2 construct: made in house; host or cells: E. coli BL21 (DE3) pLysS pET20b(+)::4HBT, cell free extract
T2 sequence (Q04416 whole entry): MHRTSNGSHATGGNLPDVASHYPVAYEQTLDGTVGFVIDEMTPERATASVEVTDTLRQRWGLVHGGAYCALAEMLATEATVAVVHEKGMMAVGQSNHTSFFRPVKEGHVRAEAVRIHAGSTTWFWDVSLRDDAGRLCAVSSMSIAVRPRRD
Procedure: To prepare a cell free extract of the 4HBT enzyme, one of the cell pellets of E. coli BL21 (DE3) pLysS pET20b(+)::4HBT that was prepared previously was re-suspended in HEPES (50 mM, pH 7.5) assay buffer and lysed in a Constant Systems One Shot cell disrupter. The cell lysate was centrifuged at 18,000 g for 15 min at 4° C. and the supernatant of this was centrifuged at 57,750 g for a further 60 min at 4° C. This supernatant was washed using a VivaSpin Viva6 10,000 Molecular Weight Cut-Off centrifugal concentrator, centrifuging at 10,000 g at 18° C. until a six-fold volume reduction, followed by a six-fold re-dilution in the HEPES assay buffer and a further 6-fold volume reduction in the centrifugal concentrator. The total protein concentration of the cell free extracts from E. coli BL21 (DE3) pLysS pET20b(+)::4HBT overexpression cultures was performed using the BioRad DC assay kit, using bovine serum albumin as the protein standard. The same procedure was followed in order to prepare cell free extracts from a cell pellet of the E. coli BL21 (DE3) pLysS pET20b(+), the negative control strain.
Crude enzymatic assays of 4HBT were performed in cuvettes (1 ml) containing cell free protein extract (1 mg·ml^−1), methacrylyl-CoA (approximately 100 μM), 5′5-dithiobis-(2-nitrobenzoic) acid (DTNB) (500 μM). Reactions were started by the addition of substrate and were monitored at 412 nm. […]

Structure (SMILES): CC(C)C(=O)O [isobutyric acid]
- turnover number (kcat) (acyl-CoA synthetase AcsA): 10.6 s⁻¹
- Km (acyl-CoA synthetase AcsA; read-out: Michaelis constant (Km)): 140 µM

- oxidation of substrate by ACX4 [1]: oxidises
Structure (SMILES): CC(C)C(=O)SCCNC(=O)CCNC(=O)[C@H](O)C(C)(C)COP(=O)(O)OP(=O)(O)OC[C@H]1O[C@@H](n2cnc3c(N)ncnc32)[C@H](O)[C@@H]1OP(=O)(O)O [isobutyryl-CoA]

Structure (SMILES): C=C(C)C(=O)SCCNC(=O)CCNC(=O)[C@H](O)C(C)(C)COP(=O)(O)OP(=O)(O)OC[C@H]1O[C@@H](n2cnc3c(N)ncnc32)[C@H](O)[C@@H]1OP(=O)(O)O [methacrylyl-CoA]
- substrate selectivity of 4HBT ([2]; methacrylyl-CoA versus isobutyryl-CoA): selectivity for methacrylyl-CoA over isobutyryl-CoA
- hydrolysis of substrate by 4HBT ([2]; substrate approximately 100 μM, DTNB 500 μM): catalysed the hydrolysis
